Biological target: T1, Human pyruvate kinase R (PKR) (Homo sapiens, UniProt P30613)
T1 construct: Human pyruvate kinase R (PKR), residues 14-574; 6x-His (N, cleaved yes); 8x-Arg (N, cleaved yes); SUMO (N, cleaved yes); host or cells: E. coli
Assay: Biochemical assay for activation of pyruvate kinase R (Kinase-Glo luminescence measurement of ATP generation)
Conditions: for AC50: PKR biochemical assay, 0.1 nM PKR, 0.3 mM ADP, 2 mM FBP, 0.1 mM PEP; for Emax: maximal activation level relative to the activation level achieved by the literature compound AG-348 @ 10 μM
How it was run: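 Recombinant human PKR (residues 14-574), E. coli-expressed with His-Arg-SUMO tag removed, purified by Ni-NTA, anion exchange and size exclusion. Activation measured as ATP generation via Kinase-Glo luminescence.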

T1 sequence (P30613 14-574): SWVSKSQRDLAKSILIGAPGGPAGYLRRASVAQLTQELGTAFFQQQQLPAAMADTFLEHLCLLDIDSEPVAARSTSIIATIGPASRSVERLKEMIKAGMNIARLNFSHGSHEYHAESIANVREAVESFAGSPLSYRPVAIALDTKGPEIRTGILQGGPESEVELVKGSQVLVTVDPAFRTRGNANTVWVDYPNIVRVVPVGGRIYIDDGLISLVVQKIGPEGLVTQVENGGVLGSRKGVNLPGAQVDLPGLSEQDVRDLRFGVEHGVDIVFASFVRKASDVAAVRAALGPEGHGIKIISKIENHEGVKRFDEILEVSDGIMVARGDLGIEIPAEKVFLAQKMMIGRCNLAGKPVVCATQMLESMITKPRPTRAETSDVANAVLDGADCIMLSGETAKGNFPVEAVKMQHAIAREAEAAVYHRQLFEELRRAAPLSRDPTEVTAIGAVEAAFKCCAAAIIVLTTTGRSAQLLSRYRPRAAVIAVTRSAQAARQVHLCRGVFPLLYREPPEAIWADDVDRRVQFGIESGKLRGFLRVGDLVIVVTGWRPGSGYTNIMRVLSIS

AC50 [nM]	Emax [%]	Structure (SMILES)
38	74	Cc1nc(CNC(=O)NCc2ncnn2-c2ccc3ncc(F)cc3c2)n(-c2ccc(Cl)c(F)c2)n1 [Compound 46, 3-{[1-(4-chloro-3-fluorophenyl)-3-methyl-1H-1,2,4-triazol-5-yl]methyl}-1-{[1-(3-fluoroquinolin-6-yl)-1H-1,2,4-triazol-5-yl]methyl}urea]
33	47	O=C(NCc1ncnn1-c1ccc(Cl)c(F)c1)NCc1ncnn1-c1ccc2cccnc2c1 [Compound 75, 1-{[1-(4-chloro-3-fluorophenyl)-1H-1,2,4-triazol-5-yl]methyl}-3-{[1-(quinolin-7-yl)-1H-1,2,4-triazol-5-yl]methyl}urea]
24	75	Cc1nc(CNC(=O)NCc2ncnn2-c2ccc3c(c2)OCC3)n(-c2ccc(Cl)c(F)c2)n1 [Compound 24, 3-{[1-(4-chloro-3-fluorophenyl)-3-methyl-1H-1,2,4-triazol-5-yl]methyl}-1-{[1-(2,3-dihydro-1-benzofuran-6-yl)-1H-1,2,4-triazol-5-yl]methyl}urea]
180	89	Cc1nc(CNC(=O)NCc2ncnn2CC2(C)CCOCC2)n(-c2ccc(Cl)c(F)c2)n1 [Compound 12, 3-{[1-(4-chloro-3-fluorophenyl)-3-methyl-1H-1,2,4-triazol-5-yl]methyl}-1-({1-[(4-methyloxan-4-yl)methyl]-1H-1,2,4-triazol-5-yl}methyl)urea]
34	100	Cc1nc(CNC(=O)NCc2nc(C)nn2-c2ccc(Cl)c(CO)c2)n(-c2ccc(Cl)c(F)c2)n1 [Compound 96, 1-({1-[4-chloro-3-(hydroxymethyl)phenyl]-3-methyl-1H-1,2,4-triazol-5-yl}methyl)-3-{[1-(4-chloro-3-fluorophenyl)-3-methyl-1H-1,2,4-triazol-5-yl]methyl}urea]
140	105	Cc1nc(CNC(=O)NCC2=NC3(CC3)C(=O)N2c2ccc3cccnc3c2)n(-c2ccc(Cl)c(F)c2)n1 [Compound 111, 1-{[1-(4-chloro-3-fluorophenyl)-3-methyl-1H-1,2,4-triazol-5-yl]methyl}-3-{[7-oxo-6-(quinolin-7-yl)-4,6-diazaspiro[2.4]hept-4-en-5-yl]methyl}urea]
120	64	CCN(Cc1ncnn1CC1CCOCC1)C(=O)NCc1ncnn1-c1ccc(Cl)c(F)c1 [Compound 9, 3-{[1-(4-chloro-3-fluorophenyl)-1H-1,2,4-triazol-5-yl]methyl}-1-ethyl-1-({1-[(oxan-4-yl)methyl]-1H-1,2,4-triazol-5-yl}methyl)urea]
71	60	O=C(NCc1ncnn1-c1ccc2cccnc2c1)NCc1n[nH]c(=O)n1-c1ccc(Cl)c(F)c1 [Compound 98, 3-{[4-(4-chloro-3-fluorophenyl)-5-oxo-4,5-dihydro-1H-1,2,4-triazol-3-yl]methyl}-1-{[1-(quinolin-7-yl)-1H-1,2,4-triazol-5-yl]methyl}urea]
1000	55	CC1(C)CC(Cn2ncnc2CNC(=O)NCc2ncnn2-c2ccc(Cl)c(F)c2)CCO1 (stereo not shown) [Compound 13, 3-{[1-(4-chloro-3-fluorophenyl)-1H-1,2,4-triazol-5-yl]methyl}-1-({1-[(2,2-dimethyloxan-4-yl)methyl]-1H-1,2,4-triazol-5-yl}methyl)urea]
5.4	33	O=C1N(Cc2ncnn2-c2ccc(Cl)c(F)c2)CCCN1Cc1ncnn1-c1ccc(Cl)c(F)c1 [Compound 6, 1,3-bis({[1-(4-chloro-3-fluorophenyl)-1H-1,2,4-triazol-5-yl]methyl})-1,3-diazinan-2-one]
280	64	O=C(NCc1ncnn1-c1ccc2cccnc2c1)NCc1ncnn1-c1ccc2cccnc2c1 [Compound 81, 1,3-bis({[1-(quinolin-7-yl)-1H-1,2,4-triazol-5-yl]methyl})urea]
